Reference: ChEMBL document CHEMBL4033800, “Further Developments of the Phenyl-Pyrrolyl Pentane Series of Nonsteroidal Vitamin D Receptor Modulators as Anticancer Agents” (J Med Chem, 2018)

Tested on: MCF7
Test: Antiproliferative activity against human MCF7 cells after 48 hrs by MTT assay
Type: functional, cell-based
Conditions: MCF7, 48 h

Compound | IC50
C=CCN(C)C(=O)c1ccc(C(CC)(CC)c2ccc(OCCC(O)(CC)CC)c(C)c2)n1CC | > 50 µM
CCn1c(C(=O)NC(C)CO)ccc1C(CC)(CC)c1ccc(OCCC(O)(CC)CC)c(C)c1 (stereo unspecified) | 12.6 µM
CCn1c(C(=O)N(CCC#N)CCC#N)ccc1C(CC)(CC)c1ccc(OCCC(O)(CC)CC)c(C)c1 | > 50 µM
CCn1c(C(=O)NC(CO)CCO)ccc1C(CC)(CC)c1ccc(OCCC(O)(CC)CC)c(C)c1 (stereo unspecified) | 31.4 µM

Second part, the compound after the results:

IC50 | Compound
3.35 µM | CCn1c(C(=O)NCCCN(C)C)ccc1C(CC)(CC)c1ccc(OCCC(O)(CC)CC)c(C)c1
> 50 µM | CCOc1ccc(NC(=O)c2ccc(C(CC)(CC)c3ccc(OCCC(O)(CC)CC)c(C)c3)n2CC)cc1

Tested on: PC-3
Test: Antiproliferative activity against human PC3 cells after 48 hrs by MTT assay
Type: functional, cell-based
Conditions: PC-3, 48 h

Compound | IC50
C=CCN(C)C(=O)c1ccc(C(CC)(CC)c2ccc(OCCC(O)(CC)CC)c(C)c2)n1CC | 12.8 µM
CCn1c(C(=O)NC(C)CO)ccc1C(CC)(CC)c1ccc(OCCC(O)(CC)CC)c(C)c1 (stereo unspecified) | 7.87 µM
CCn1c(C(=O)N(CCC#N)CCC#N)ccc1C(CC)(CC)c1ccc(OCCC(O)(CC)CC)c(C)c1 | > 50 µM
CCn1c(C(=O)NC(CO)CCO)ccc1C(CC)(CC)c1ccc(OCCC(O)(CC)CC)c(C)c1 (stereo unspecified) | 8.76 µM

Now from value to compound:

IC50 | Compound
2.15 µM | CCn1c(C(=O)NCCCN(C)C)ccc1C(CC)(CC)c1ccc(OCCC(O)(CC)CC)c(C)c1
> 50 µM | CCOc1ccc(NC(=O)c2ccc(C(CC)(CC)c3ccc(OCCC(O)(CC)CC)c(C)c3)n2CC)cc1

Tested on: Caco-2
Test: Antiproliferative activity against human Caco2 cells after 48 hrs by MTT assay
Type: functional, cell-based
Conditions: Caco-2, 48 h

Compound | IC50
C=CCN(C)C(=O)c1ccc(C(CC)(CC)c2ccc(OCCC(O)(CC)CC)c(C)c2)n1CC | > 50 µM
CCn1c(C(=O)NC(C)CO)ccc1C(CC)(CC)c1ccc(OCCC(O)(CC)CC)c(C)c1 (stereo unspecified) | > 50 µM
CCn1c(C(=O)N(CCC#N)CCC#N)ccc1C(CC)(CC)c1ccc(OCCC(O)(CC)CC)c(C)c1 | > 50 µM
CCn1c(C(=O)NC(CO)CCO)ccc1C(CC)(CC)c1ccc(OCCC(O)(CC)CC)c(C)c1 (stereo unspecified) | 40.2 µM

Continued, values first:

IC50 | Compound
0.49 µM | CCn1c(C(=O)NCCCN(C)C)ccc1C(CC)(CC)c1ccc(OCCC(O)(CC)CC)c(C)c1
> 50 µM | CCOc1ccc(NC(=O)c2ccc(C(CC)(CC)c3ccc(OCCC(O)(CC)CC)c(C)c3)n2CC)cc1

Tested on: HepG2
Test: Antiproliferative activity against human HepG2 cells after 48 hrs by MTT assay
Type: functional, cell-based
Conditions: HepG2, 48 h

Compound | IC50
C=CCN(C)C(=O)c1ccc(C(CC)(CC)c2ccc(OCCC(O)(CC)CC)c(C)c2)n1CC | > 50 µM
CCn1c(C(=O)NC(C)CO)ccc1C(CC)(CC)c1ccc(OCCC(O)(CC)CC)c(C)c1 (stereo unspecified) | 43.1 µM
CCn1c(C(=O)N(CCC#N)CCC#N)ccc1C(CC)(CC)c1ccc(OCCC(O)(CC)CC)c(C)c1 | 46.3 µM
CCn1c(C(=O)NC(CO)CCO)ccc1C(CC)(CC)c1ccc(OCCC(O)(CC)CC)c(C)c1 (stereo unspecified) | 24.8 µM

Now from value to compound:

IC50 | Compound
0.11 µM | CCn1c(C(=O)NCCCN(C)C)ccc1C(CC)(CC)c1ccc(OCCC(O)(CC)CC)c(C)c1
> 50 µM | CCOc1ccc(NC(=O)c2ccc(C(CC)(CC)c3ccc(OCCC(O)(CC)CC)c(C)c3)n2CC)cc1

Tested on: L02
Test: Antiproliferative activity against human L02 cells after 48 hrs by MTT assay
Type: cell-based
Conditions: L02, 48 h

Compound | IC50
C=CCN(C)C(=O)c1ccc(C(CC)(CC)c2ccc(OCCC(O)(CC)CC)c(C)c2)n1CC | 1.19 µM
CCn1c(C(=O)NC(C)CO)ccc1C(CC)(CC)c1ccc(OCCC(O)(CC)CC)c(C)c1 (stereo unspecified) | 4.84 µM
CCn1c(C(=O)N(CCC#N)CCC#N)ccc1C(CC)(CC)c1ccc(OCCC(O)(CC)CC)c(C)c1 | 37.8 µM
CCn1c(C(=O)NC(CO)CCO)ccc1C(CC)(CC)c1ccc(OCCC(O)(CC)CC)c(C)c1 (stereo unspecified) | 3.04 µM
CCn1c(C(=O)NCCCN(C)C)ccc1C(CC)(CC)c1ccc(OCCC(O)(CC)CC)c(C)c1 | 2.42 µM
CCOc1ccc(NC(=O)c2ccc(C(CC)(CC)c3ccc(OCCC(O)(CC)CC)c(C)c3)n2CC)cc1 | > 50 µM

Target: T1, Vitamin D3 receptor (Homo sapiens, UniProt P11473)
T1 sequence (P11473 whole entry): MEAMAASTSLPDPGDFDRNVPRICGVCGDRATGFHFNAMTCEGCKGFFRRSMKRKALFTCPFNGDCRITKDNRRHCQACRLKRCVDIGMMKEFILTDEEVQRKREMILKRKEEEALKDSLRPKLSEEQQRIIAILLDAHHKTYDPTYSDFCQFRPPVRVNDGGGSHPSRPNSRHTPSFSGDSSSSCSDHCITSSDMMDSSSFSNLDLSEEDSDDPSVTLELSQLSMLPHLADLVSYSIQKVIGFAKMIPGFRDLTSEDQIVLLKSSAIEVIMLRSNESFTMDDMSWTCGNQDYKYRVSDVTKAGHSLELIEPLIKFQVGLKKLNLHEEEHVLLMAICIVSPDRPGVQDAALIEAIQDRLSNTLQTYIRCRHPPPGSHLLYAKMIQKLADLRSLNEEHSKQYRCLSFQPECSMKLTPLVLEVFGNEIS
Test: Displacement of fluormone VDR red from human full length VDR after 4 hrs by fluorescence polarization assay
Conditions: not given

IC50 | Compound
4.54 µM | CCOc1ccc(NC(=O)c2ccc(C(CC)(CC)c3ccc(OCCC(O)(CC)CC)c(C)c3)n2CC)cc1
